Measured values taken from ChEMBL document CHEMBL4396962, “Discovery of novel steroidal histamine H3 receptor antagonists/inverse agonists. Part 2. Versatile steroidal carboxamide derivatives” (Bioorg Med Chem Lett, 2019).
Converted amounts (≈) assume the structure as drawn.

Key:
Histamine H3 receptor [1] = biological target: Histamine H3 receptor (Homo sapiens, UniProt Q9Y5N1); assay: Displacement of [3H]methyl- N-alpha methylhistamine dihydrochloride from human recombinant H3 receptor expressed in CHOK1 cells measured after 30 mins by liquid scintillation counter method; assay type: cell-based
Histamine H3 receptor [2] = biological target: Histamine H3 receptor (Rattus norvegicus, UniProt Q9QYN8); assay: Displacement of [3H]methyl- N-alpha methylhistamine dihydrochloride from Sprague-Dawley rat cerebral cortex H3 receptor measured after 30 mins by scintillation counter method
[3] = biological target: Muscarinic acetylcholine receptor (Rattus norvegicus) (UniProt P08482+P08483+P08485+P08911+P10980); assay: Displacement of [3H]quinuclidinyl benzilate from Wistar rat cortex muscarinic acetylcholine receptor at 3 uM by liquid scintillation counter method relative to control
[4] = biological target: Voltage-gated inwardly rectifying potassium channel KCNH2 (Homo sapiens, UniProt Q12809); assay: Inhibition of human ERG
[5] = Fraction of drug metabolized in human microsomes; assay type: ADME, Microsome; details: read-out: Fm
[6] = Fraction of drug metabolized in rat microsomes; assay type: ADME, Microsome; details: read-out: Fm
[7] = biological target: Muscarinic acetylcholine receptor; assay: Displacement of [3H]quinuclidinyl benzilate from Wistar rat cortex muscarinic acetylcholine receptor by liquid scintillation counter method
Rattus norvegicus [8] = assay: In vivo antagonist activity at H3 receptor in po dosed Wistar rat assessed as inhibition of imetit induced dipsogenia preincubated for 30 mins followed by imetit administration at 3 mg/kg,sc; assay type: functional
Rattus norvegicus [9] = species on record: Rattus norvegicus; assay: Selectivity index, ratio of Ki for Wistar rat cortex muscarinic acetylcholine receptor to Ki for Sprague-Dawley rat cerebral cortex H3 receptor
[10] = Tmax in Wistar rat brain at 10 mg/kg, po measured after 5 hrs by HPLC-MS/MS analysis; assay type: ADME, organism-based
[11] = Ratio of AUC (0 to infinity) in Wistar rat brain to plasma at 10 mg/kg, po measured after 5 hrs by HPLC-MS/MS analysis; assay type: ADME, organism-based
Rattus norvegicus [12] = assay: Cognitive enhancement in scopolamine-induced amnesia Wistar rat model assessed as increase in memory retrieval at 3 mg/kg, po with scopolamine treatment for 23 hrs followed by compound administration measured after 1 hr by water labyrinth relative to control; assay type: functional
[13] = Solubility of compound in DMSO; assay type: physicochemical
[14] = Kinetic solubility of compound; assay type: physicochemical; details: read-out: Kinetic_solubility
[15] = Lipophilicity, logP of compound; assay type: physicochemical; details: octanol/water
[16] = Partition coefficient, logD of compound at pH 7.4; assay type: physicochemical; details: octanol/water
Rattus norvegicus [17] = assay: In vivo antagonist activity at Wistar rat H3 receptor assessed as inhibition of imetit-induced dipsogenia at 30 mg/kg, po for 30 mins followed by imetit administration at 3 mg/kg, sc, relative to control; assay type: functional
Rattus norvegicus [18] = assay: In vivo antagonist activity at H3 receptor in ip dosed Wistar rat assessed as inhibition of imetit induced dipsogenia preincubated for 30 mins followed by imetit administration at 3 mg/kg,sc; assay type: functional
[19] = biological target: Histamine H3 receptor (Rattus norvegicus) (UniProt Q9QYN8); assay: Displacement of [3H]methyl- N-alpha methylhistamine dihydrochloride from Sprague-Dawley rat cerebral cortex H3 receptor measured after 30 mins by scintillation counter method relative to control
Sequence of Histamine H3 receptor (Rattus norvegicus) (Q9QYN8 whole entry): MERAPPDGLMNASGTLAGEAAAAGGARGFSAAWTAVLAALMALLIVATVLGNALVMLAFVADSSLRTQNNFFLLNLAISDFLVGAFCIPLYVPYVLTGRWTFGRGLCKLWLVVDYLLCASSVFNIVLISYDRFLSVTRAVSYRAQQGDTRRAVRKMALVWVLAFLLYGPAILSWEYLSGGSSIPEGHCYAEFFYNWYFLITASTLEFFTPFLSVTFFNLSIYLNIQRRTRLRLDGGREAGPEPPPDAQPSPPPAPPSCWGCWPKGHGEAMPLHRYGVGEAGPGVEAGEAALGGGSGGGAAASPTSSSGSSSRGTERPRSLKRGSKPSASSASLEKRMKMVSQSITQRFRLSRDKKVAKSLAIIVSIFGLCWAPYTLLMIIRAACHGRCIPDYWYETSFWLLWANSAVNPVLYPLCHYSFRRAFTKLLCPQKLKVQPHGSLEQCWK

Sequence of Histamine H3 receptor (Rattus norvegicus, UniProt Q9QYN8) (Q9QYN8 whole entry): as above
Sequence of Voltage-gated inwardly rectifying potassium channel KCNH2 (Q12809 whole entry): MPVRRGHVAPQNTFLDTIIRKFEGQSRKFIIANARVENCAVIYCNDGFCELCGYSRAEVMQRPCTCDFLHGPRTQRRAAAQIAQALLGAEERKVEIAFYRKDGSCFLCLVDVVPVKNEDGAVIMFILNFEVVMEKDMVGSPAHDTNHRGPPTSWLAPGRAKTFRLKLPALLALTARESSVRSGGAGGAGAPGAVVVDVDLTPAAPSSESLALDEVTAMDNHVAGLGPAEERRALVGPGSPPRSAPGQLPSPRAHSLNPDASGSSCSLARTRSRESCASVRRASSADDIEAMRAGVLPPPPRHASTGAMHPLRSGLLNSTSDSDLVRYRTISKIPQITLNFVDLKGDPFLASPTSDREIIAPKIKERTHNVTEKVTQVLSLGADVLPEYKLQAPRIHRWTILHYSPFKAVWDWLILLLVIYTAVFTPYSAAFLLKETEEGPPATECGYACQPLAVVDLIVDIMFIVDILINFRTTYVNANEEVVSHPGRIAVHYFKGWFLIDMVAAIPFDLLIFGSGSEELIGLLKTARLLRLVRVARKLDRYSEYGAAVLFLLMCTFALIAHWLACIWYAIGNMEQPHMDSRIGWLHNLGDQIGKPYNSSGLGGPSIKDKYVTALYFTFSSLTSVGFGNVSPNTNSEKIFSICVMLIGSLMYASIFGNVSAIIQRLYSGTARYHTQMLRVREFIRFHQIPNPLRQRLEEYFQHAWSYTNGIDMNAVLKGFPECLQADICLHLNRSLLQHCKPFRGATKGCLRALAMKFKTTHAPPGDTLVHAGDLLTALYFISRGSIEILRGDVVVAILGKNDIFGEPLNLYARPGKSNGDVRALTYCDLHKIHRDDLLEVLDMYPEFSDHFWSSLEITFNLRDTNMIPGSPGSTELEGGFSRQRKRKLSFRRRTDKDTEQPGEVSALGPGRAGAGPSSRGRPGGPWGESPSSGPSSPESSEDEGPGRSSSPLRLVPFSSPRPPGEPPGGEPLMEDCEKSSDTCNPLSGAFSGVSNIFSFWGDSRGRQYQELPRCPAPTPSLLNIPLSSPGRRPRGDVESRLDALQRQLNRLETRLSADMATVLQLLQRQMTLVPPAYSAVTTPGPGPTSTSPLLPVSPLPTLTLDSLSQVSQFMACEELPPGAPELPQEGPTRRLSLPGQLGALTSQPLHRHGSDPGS
Sequence of Histamine H3 receptor (Homo sapiens, UniProt Q9Y5N1) (Q9Y5N1 whole entry): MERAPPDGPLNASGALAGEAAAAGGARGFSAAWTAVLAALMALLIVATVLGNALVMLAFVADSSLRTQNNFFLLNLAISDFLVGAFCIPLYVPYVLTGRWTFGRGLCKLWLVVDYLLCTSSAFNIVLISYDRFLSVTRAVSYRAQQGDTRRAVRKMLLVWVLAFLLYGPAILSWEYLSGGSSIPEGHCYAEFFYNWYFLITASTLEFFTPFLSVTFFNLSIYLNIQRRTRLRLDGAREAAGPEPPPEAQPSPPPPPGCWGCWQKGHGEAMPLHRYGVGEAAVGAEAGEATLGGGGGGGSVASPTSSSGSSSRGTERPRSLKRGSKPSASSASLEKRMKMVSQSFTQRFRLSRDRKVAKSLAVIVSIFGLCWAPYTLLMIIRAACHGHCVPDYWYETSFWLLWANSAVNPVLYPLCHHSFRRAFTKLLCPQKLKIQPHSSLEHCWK

Work on C[C@@H]1CCCN1CCCOc1ccc2c(c1)CC[C@H]1[C@@H]3[C@@H](C(=O)NCC4CC4)CC[C@@]3(C)CC[C@H]21 yielded a Ki (Histamine H3 receptor [1]) of 0.009 µM, a Ki (Histamine H3 receptor [2]) of 0.013 µM and an Activity [3] of 27%. The IC50 [4] was 4.1 µM, the metabolised [5] was 90% and the metabolised [6] was 76%.
Compound CCNC(=O)[C@H]1CC(=O)[C@@]2(C)CC[C@@H]3c4ccc(OCCCN5CC[C@@H](F)C5)cc4CC[C@H]3[C@H]12 has a Ki (Histamine H3 receptor [1]) of 0.23 µM.
In the case of C[C@@H]1CCCN1CCCOc1ccc2c(c1)CC[C@H]1[C@@H]3[C@@H](C(=O)NCC4CCC4)CC[C@@]3(C)CC[C@H]21, the Ki (Histamine H3 receptor [1]) is reported as 0.005 µM, the Ki (Histamine H3 receptor [2]) is reported as 0.019 µM and the Ki [7] is reported as 1.708 µM. The metabolised [5] was 48% and the metabolised [6] was 50%.
Compound CCNC(=O)[C@H]1CC[C@@]2(C)CC[C@@H]3c4ccc(OCCCN5CCC[C@H]5C)cc4CC[C@H]3[C@H]12 has a Ki (Histamine H3 receptor [1]) of 0.009 µM, a Ki (Histamine H3 receptor [2]) of 0.024 µM and an Activity [3] of 24%. The IC50 [4] was 4.1 µM, the ED50 (Rattus norvegicus [8]) was 2.26 to 2.3 mg/kg and the metabolised [5] was 62%. It also gave a metabolised [6] of 66%.
CCNC(=O)[C@H]1CC(=O)[C@@]2(C)CC[C@@H]3c4ccc(OCCCN5CCC(F)CC5)cc4CC[C@H]3[C@H]12 showed a Ki (Histamine H3 receptor [1]) of 0.53 µM.
In the case of CC(=O)N[C@@H]1CC(=O)[C@@]2(C)CC[C@@H]3c4ccc(OCCCN5CCC[C@H]5C)cc4CC[C@H]3[C@H]12, the Ki (Histamine H3 receptor [1]) is reported as 0.01 µM, the Ki (Histamine H3 receptor [2]) is reported as 0.039 µM and the Activity [3] is reported as 20%. It also gave a metabolised [5] of 85% and a metabolised [6] of 46%.
With CCNC(=O)[C@@H]1CC(=O)[C@@]2(C)CC[C@@H]3c4ccc(OCCN5CCC[C@@H]5C)cc4CC[C@H]3[C@H]12 the Ki (Histamine H3 receptor [1]) was 0.26 µM and the Activity [3] was 4%.
For CCNC(=O)[C@@H]1CC(=O)[C@@]2(C)CC[C@@H]3c4ccc(OCCCCN5CCC[C@@H]5C)cc4CC[C@H]3[C@H]12, the Ki (Histamine H3 receptor [1]) was 0.234 µM and the Activity [3] was 17%.
For C[C@@H]1CCCN1CCCOc1ccc2c(c1)CC[C@@H]1[C@@H]2CC[C@]2(C)[C@@H](C(=O)N3CCCC3)CC[C@@H]12, the Ki (Histamine H3 receptor [1]) was 0.002 µM, the Ki (Histamine H3 receptor [2]) was 0.018 µM and the Ki [7] was 0.454 µM. The Ratio Ki (Rattus norvegicus [9]) was 25.
CCNC(=O)[C@H]1CC(=O)[C@@]2(C)CC[C@@H]3c4ccc(OCCCN5CCC[C@@H]5C)cc4CC[C@H]3[C@H]12 gave a Ki (Histamine H3 receptor [1]) of 0.021 µM.
With CCNC(=O)[C@H]1C[C@H](OC)[C@@]2(C)CC[C@@H]3c4ccc(OCCCN5CCC[C@H]5C)cc4CC[C@H]3[C@H]12 the Ki (Histamine H3 receptor [1]) was 0.009 µM, the Ki (Histamine H3 receptor [2]) was 0.028 µM and the Activity [3] was 7%. It also gave an IC50 [4] of 11.4 µM, an ED50 (Rattus norvegicus [8]) of 2.5 mg/kg and a metabolised [5] of 96%. It also gave a metabolised [6] of 96%.
CCNC(=O)[C@@H]1CC(=O)[C@@]2(C)CC[C@@H]3c4ccc(OCCCN5CCC[C@H]5C)cc4CC[C@H]3[C@H]12 gave a Ki (Histamine H3 receptor [1]) of 0.043 µM.
Work on CCNC(=O)[C@H]1CC(=O)[C@@]2(C)CC[C@@H]3c4ccc(OCCCN5CCC(F)(F)CC5)cc4CC[C@H]3[C@H]12 yielded a Ki (Histamine H3 receptor [1]) of 1.37 µM.
With C[C@]12CC[C@@H]3c4ccc(OCCCN5CCCC5=O)cc4CC[C@H]3[C@@H]1CC[C@@H]2N1CCCC1 the Ki (Histamine H3 receptor [1]) was 0.009 µM, the Ki (Histamine H3 receptor [2]) was 0.022 µM and the Ki [7] was 0.7 µM. The metabolised [5] was 77% and the metabolised [6] was 85%.
CCNC(=O)[C@H]1CC(=O)[C@@]2(C)CC[C@@H]3c4ccc(OCCCN5CCC[C@H]5C)cc4CC[C@H]3[C@H]12 showed a Ki (Histamine H3 receptor [1]) of 0.003 µM, a Ki (Histamine H3 receptor [2]) of 0.009 µM and a Ki [7] of 4.7 µM. For the same compound, the IC50 [4] was 17.5 µM, the ED50 (Rattus norvegicus [8]) was 0.47 mg/kg and the metabolised [5] was 99%. The metabolised [6] was 99%, the Tmax [10] was 1 h and the Kp at 5 h [11] was 0.24. The Activity (Rattus norvegicus [12]) was 52.3%, the solubility [13] was over 50000 µM and the solubility kinetic [14] was 250 µM (≈ 117 µg/mL). For the same compound, the logP [15] was 4.2 and the logD [16] was 1.7.
In the case of C[C@]12CC[C@@H]3c4ccc(OCCCN5CCCC5)cc4CC[C@H]3[C@@H]1CC[C@@H]2N1CCCC1, the Ki [7] is reported as 0.11 µM, the IC50 [4] is reported as 7.5 µM and the “inhibition (INH)” value (Rattus norvegicus [17]) is reported as 19%. It also gave an ED50 (Rattus norvegicus [18]) of 12 mg/kg.
For C[C@@H]1CCCN1CCCOc1ccc2c(c1)CC[C@@H]1[C@@H]2CC[C@]2(C)[C@@H](N3CCCC3=O)CC[C@@H]12, the Ki (Histamine H3 receptor [2]) was 0.135 µM and the Activity [3] was 51%.
For “N-ethyl-2-((8R,9S,13S,14S,15R,17S)-17-methoxy-13-methyl-3-(3-((R)-2-methylpyrrolidin-1-yl)propoxy)-7,8,9,11,12,13,14,15,16,17-decahydro-6H-cyclopenta[a]phenanthren-15-yl)acetamide”, the Activity [3] was 6%.
CCN(CC)C(=O)[C@@H]1CC(=O)[C@@]2(C)CC[C@@H]3c4ccc(OCCCN5CCC[C@@H]5C)cc4CC[C@H]3[C@H]12 showed a Ki (Histamine H3 receptor [1]) of 0.034 µM and an inhibition [19] of 44%.
Work on C[C@H]1CCCN1CCCOc1ccc2c(c1)CC[C@H]1[C@@H]3[C@H](C(=O)N4CCCC4)CC(=O)[C@@]3(C)CC[C@H]21 yielded a Ki (Histamine H3 receptor [1]) of 0.03 µM, a Ki (Histamine H3 receptor [2]) of 0.009 µM and an Activity [3] of 16%. It also gave an IC50 [4] of 80 µM, an ED50 (Rattus norvegicus [8]) of 0.6 mg/kg and a metabolised [5] of 75%. For the same compound, the metabolised [6] was 85%.
